Consider seven molecules from patent US10618929B2, “3-substituted 5-amino-6H-thiazolo[4,5-D]pyrimidine-2, 7-dione compounds for the treatment and prophylaxis of virus infection” (Hoffmann-La Roche Inc., priority 2014, dated 2020).

The test system of the first series is human hepatocytes. The experiment in a line: Metabolic conversion of prodrugs to active forms in human hepatocytes. Format: in vitro ADME. The note with it: active metabolites Example 1-A, Example 14-A and penciclovir, respectively. From the text: A study was undertaken to evaluate the metabolic conversion of prodrugs, formula (II) or formula (IIa), to compounds of formula (I) or formula (Ia) of the present invention. The produgs, formula (II) or formula (IIa), can be metabolized to the active compound of formula (I) or formula (Ia) and other compounds of the invention in the body if they are served as prodrugs. Hepatocytes are often used to assess the degree of metabolic conversion of prodrugs in the body of animal or human. A study was undertaken to evaluate the metabolic conversion of prodrugs, Example 2-A, Example 3-A, Example 4-A, Example 16-A and Example 17-A, to the corresponding active forms, Example 1-A and Example 14-A, in the presence of human hepatocytes. The formation of active forms, Example 1-A and Example 14-A, were monitored in the study. For comparison, the metabolic conversion of famciclovir to penciclovir was also assessed. Cryopreserved hepatocytes plating medium (Cat. #: PY-HMD-01) was purchased from RILD Research Institute for Liver Diseases (Shanghai) Co. Ltd. Cryopreserved human hepatocyte (Cat. #: X008005, Lot #:VRR) was purchased from In Vitro Technologies (Baltimore, Md.). The stock hepatocyte suspension was prepared from cryopreserved hepatocytes in plating medium at the concentration of 1.8×10^6 cells/mL. […] Reaction suspensions were prepared in 24-well cell culture plate by mixing 200 μL of hepatocytes suspension (Cyno or human) and 200 μL of working solution. The final incubation contained 0.9×10^6 cells/mL and 50 μM compound. The above mixtures were incubated at 37° C. in a humidified 5% CO2 atmosphere, with a 150 rpm shaking. After 180 min of incubation, 200 μL of the incubation mixture was transferred to 1.5 mL tube and quenched with 400 μL stop solution (ice-cold acetonitrile with 0.2 μM Tolbutamide as internal standard). The samples were centrifuged at 12000 rpm for 10 minutes and the resultant supernatants were subjected to LC-MS/MS analysis. The calibration curves were prepared in the following way. To a 200 μL of cell suspension (cell density of 1.8 million cells/mL), 198 μL of hepatocyte plating medium and 2 μL of the appropriate concentration of the compound in DMSO were added. Samples were mixed thoroughly and 200 μL of the mixture was transferred to 400 uL of the stop solution (see above). […] The compounds were quantified on an API5500 […] instrument in the ESI-Positive MRM mode.
For the molecule `CCC(O)[C@@H]1C[C@@H](O)[C@H](n2c(=O)sc3cnc(N)nc32)O1` (single isomer, unassigned) [Example 2-A], the “Metabolic conversion of prodrug to active metabolite” value was “metabolized to yield the corresponding active metabolites”. The same measure, in the same setting: in the case of `CCC(O)[C@@H]1C[C@@H](OC(C)=O)[C@H](n2c(=O)sc3cnc(N)nc32)O1` (single isomer, unassigned) [Example 3-A] it was “metabolized to yield the corresponding active metabolites”; in that of `CCC(OC(C)=O)[C@@H]1C[C@@H](O)[C@H](n2c(=O)sc3cnc(N)nc32)O1` (single isomer, unassigned) [Example 4-A], “metabolized to yield the corresponding active metabolites”; in that of `CC(=O)OC(C1CC1)[C@@H]1C[C@@H](O)[C@H](n2c(=O)sc3cnc(N)nc32)O1` (single isomer, unassigned) [Example 16-A], “metabolized to yield the corresponding active metabolites”. Still for that read-out and setting: as for `Nc1ncc2sc(=O)n([C@@H]3O[C@H](C(O)C4CC4)C[C@H]3O)c2n1` (single isomer, unassigned) [Example 17-A], the entry is “metabolized to yield the corresponding active metabolites”; as for `CC(=O)OCC(CCn1cnc2cnc(N)nc21)COC(C)=O` [Famciclovir, famciclovir, reference compound], “metabolized to yield the corresponding active metabolites”.

The subject of the next series is murine peripheral blood mononuclear cells (PBMC). The experiment in a line: In vitro cytokine induction in murine PBMC (multiplex assay). Conditions: 2 to 10 μM, 24 hours, supernatant, dose-dependent.
Method: 50 μL of cell culture medium was collected and analyzed with a 36plex Procarta multiplex kit (ebioscience EPX360-26092-901, eBioscience), which measured the levels of 15 cytokine analytes, following the manufacturer's instruction.
For `CCC(O)[C@@H]1C[C@@H](O)[C@H](n2c(=O)sc3c(=O)[nH]c(N)nc32)O1` (single isomer, unassigned) [Example 1-A], the “Cytokine induction in murine PBMC” value is “high levels of IFNα, IP10, TNFα, and IL-6 were found induced”.
